Values after ≈ are worked out from the molar mass of the structure shown. Read-outs that look alike come from different tables or passages of the source. Where a SMILES comes first, the peptide text is derived from it. [ ]: non-standard residue; d: D form. Hyp = O=C(O)[C@@H]1C[C@@H](O)CN1; Orn = NCCC[C@H](N)C(=O)O
Columns and labels:
[1] = system: M. luteus ATCC 10240; type: cell-based, Micrococcus luteus
Summary of the method: (§1)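 Bacteria grown overnight in NB at 37° C. were adjusted to 5×10^6 CFU/mL in 1% TSB and mixed 1:1 with a two-fold peptide series (final 125 μg/mL–60 ng/mL). After 20 hrs at 37° C., A595 was read; triplicates.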

[2] = system: Mycobacterium vaccae; type: cell-based
Protocol: The minimal inhibition concentrations (MIC) of the apidaecin-derived peptides and peptide-derivatives were determined by a growth inhibition assay using a serial peptide dilution in sterilized round-bottom 96-well plates (polystyrene, U-bottom, Greiner Bio-One GmbH) with a final volume of 100 μL per well. The bacteria, e.g., E. coli BL21 A1, were grown in nutrient broth (NB, Carl Roth GmbH+Co. KG, Karlsruhe, Germany) at 37° C. over night. To each well of the 96-well plate, 50 μL of the overnight culture adjusted to 5×10^6 CFU/mL in 1% TSB were added. Lyophilized peptides and peptidomimetics were dissolved in 1% TSB (tryptic soy broth) or water to give a final concentration of 250 μg/mL. Fifty μL of the peptide or peptidomimetics solution were added to the first well of a row on the plate and mixed. Fifty μL of the first well containing the peptide solution were transferred to the second well, mixed and again 50 μL transferred to the next well and so on. Thereby, a two-fold dilution series was obtained starting at 250 μg/mL in the first well down to 120 ng/mL in the 12th well of a row giving a final peptide or peptidomimetics concentration from 125 μg/mL (well 1) to 60 ng/mL (well 12). Plates were incubated at 37° C. for 20 hrs. The absorbance was measured at 595 nm using a TECAN micro plate spectrophotometer (Tecan, Germany). All peptides and peptidomimetics were measured in triplicates. Sterilized water was used as a negative control.
The bacteria strains were tested: • Eschericha coli 1103, 10233, BL 21 AI, DC 2, • Klebsiella pneumoniae 681, • Micrococcus luteus ATCC 10240, • Mycobacterium vaccae • Bactillus subtillis 347.

[3] = system: R. radiobatter ATCC 15955; assay: Growth inhibition assay (MIC); type: cell-based, Rhizobium radiobacter
Summary of the method: (§2)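 Bacteria grown overnight in nutrient broth at 37° C were diluted to 5×10^6 CFU/mL in 1% TSB and exposed to peptides serially halved from 125 μg/mL to 60 ng/mL final. After 20 h at 37° C, A595 gave the MIC, measured in triplicate.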

[4] = system: E. coli DC 2; assay: Growth inhibition assay (MIC); type: cell-based, Escherichia coli; conditions: 1% TSB, 37° C., 20 hrs
Summary of the method: as §1

[5] = system: E. coli BL 21 AI; assay: Growth inhibition assay (MIC); type: cell-based, Escherichia coli; conditions: 1% TSB, 37° C., 20 hrs
Summary of the method: as §1

[6] = system: B. subtilis 347; type: cell-based, Bactillus subtillis
Summary of the method: as §1

[7] = system: E. coli D31; type: cell-based, Escherichia coli; conditions: D31, 20 h
Summary of the method: as §2

[8] = system: K. Pneumonia 123132; assay: Growth inhibition assay (MIC); type: cell-based, Klebsiella pneumoniae
Summary of the method: as §2

[9] = system: K. Pneumonia K6, ATCC 700603; assay: Growth inhibition assay (MIC); type: cell-based, Klebsiella pneumoniae; conditions: multidrug resistant strain; 1% TSB, 37° C., 20 hrs
Summary of the method: as §2

[10] = system: E. coli 45849; assay: Growth inhibition assay (MIC); type: cell-based, Escherichia coli
Summary of the method: as §2

[11] = system: E. coli 1103; type: cell-based, Escherichia coli
Summary of the method: as §1

[12] = system: K. pneumonia 681; type: cell-based, Klebsiella pneumoniae
Summary of the method: as §1

[13] = system: S. typhi S5; type: cell-based, Salmonella typhi; conditions: S5, 20 h
Summary of the method: as §2

[14] = system: S. enterica subsp. Enterica serovar. typhi G10215 ATCC 700408; type: cell-based, Salmonella enterica; conditions: ATCC 700408, 20 h
Summary of the method: as §2

[15] = multidrug resistant strain, 1% TSB, 37° C., 20 hrs

CC[C@H](C)[C@H](NC(=O)[C@H](CCCNC(=N)N)NC(=O)[C@@H]1CCCN1C(=O)[C@H](Cc1c[nH]cn1)NC(=O)[C@@H]1CCCN1C(=O)[C@@H]1CCCN1C(=O)[C@H](CCCNC(=N)N)NC(=O)[C@@H]1CCCN1C(=O)[C@H](CCCN)NC(=O)[C@@H]1CCCN1C(=O)[C@@H](NC(=O)[C@H](Cc1ccc(O)cc1)NC(=O)[C@@H](NC(=O)[C@@H]1CCCN1C(=O)[C@H](CCCNC(=N)N)NC(=O)[C@H](CC(N)=O)NC(=O)[C@H](CC(N)=O)NC(=O)CN)C(C)C)[C@@H](C)CC)C(N)=O [compound 9] (H-GNNRPVYIP[Orn]PRPPHPRI-NH2)
MIC M. luteus ATCC 10240 ([1]; 1% TSB, 37° C., 20 hrs): 1.95 µg/mL (≈ 0.931 µM)
MIC Mycobacterium vaccae ([2]; 1% TSB, 37° C., 20 hrs): 125 µg/mL (≈ 59.7 µM)
MIC R. radiobatter ATCC 15955 ([3]; ATCC 15955, 20 h): <0.16 µg/mL
MIC E. coli DC 2 [4]: 1.95 µg/mL (≈ 0.931 µM)
MIC E. coli BL 21 AI [5]: 0.49 µg/mL (≈ 0.234 µM)
MIC B. subtilis 347 ([6]; 1% TSB, 37° C., 20 hrs): >125 µg/mL
MIC E. coli D31 [7]: 16 µg/mL (≈ 7.64 µM)
MIC K. Pneumonia 123132 ([8]; 20 h): 8 µg/mL (≈ 3.82 µM)
MIC K. Pneumonia K6, ATCC 700603 [9]: 16 µg/mL (≈ 7.64 µM)
MIC E. coli 45849 ([10]; 45849, 20 h): 1 µg/mL (≈ 0.478 µM)
MIC E. coli 1103 ([11]; 1% TSB, 37° C., 20 hrs): 3.9 µg/mL (≈ 1.86 µM)
MIC K. pneumonia 681 ([12]; 1% TSB, 37° C., 20 hrs): 3.9 µg/mL (≈ 1.86 µM)
MIC S. typhi S5 [13]: 2 µg/mL (≈ 0.955 µM)

CC[C@H](C)[C@H](NC(=O)[C@H](CCCNC(=N)N)NC(=O)[C@@H]1CCCN1C(=O)[C@H](Cc1c[nH]cn1)NC(=O)[C@@H]1CCCN1C(=O)[C@@H]1CCCN1C(=O)[C@H](CCCNC(=N)N)NC(=O)[C@@H]1C[C@@H](O)CN1C(=O)[C@H](CCCNC(=N)N)NC(=O)[C@@H]1CCCN1C(=O)[C@@H](NC(=O)[C@H](Cc1ccc(O)cc1)NC(=O)[C@@H](NC(=O)[C@@H]1CCCN1C(=O)[C@H](CCCNC(=N)N)NC(=O)[C@H](CC(N)=O)NC(=O)[C@H](CC(N)=O)NC(=O)CN)C(C)C)[C@@H](C)CC)C(N)=O [compound 15] (H-GNNRPVYIPR[Hyp]RPPHPRI-NH2)
MIC M. luteus ATCC 10240 ([1]; ATCC 10240, 20 h): 1.95 µg/mL (≈ 0.906 µM)
MIC Mycobacterium vaccae ([2]; 20 h): 125 µg/mL (≈ 58.1 µM)
MIC B. subtilis 347 ([6]; 347, 20 h): >125 µg/mL
MIC E. coli D31 [7]: 64 µg/mL (≈ 29.7 µM)
MIC E. coli 1103 ([11]; 1103, 20 h): 1.95 µg/mL (≈ 0.906 µM)
MIC S. enterica subsp. Enterica serovar. typhi G10215 ATCC 700408 [14]: 2 µg/mL (≈ 0.93 µM)
MIC K. pneumonia 681 ([12]; 20 h): 3.9 µg/mL (≈ 1.81 µM)
MIC S. typhi S5 [13]: 2 µg/mL (≈ 0.93 µM)

CC[C@H](C)[C@H](NC(=O)[C@H](Cc1ccc(O)cc1)NC(=O)[C@@H](NC(=O)[C@@H]1CCCN1C(=O)[C@H](CCCNC(=N)N)NC(=O)[C@H](CC(N)=O)NC(=O)[C@H](CC(N)=O)NC(=O)CN)C(C)C)C(=O)N1CCC[C@H]1C(=O)N[C@@H](CCCNC(=N)N)C(=O)N1C[C@H](O)C[C@H]1C(=O)N[C@@H](CCCNC(=N)N)C(=O)N1CCC[C@H]1C(=O)N1CCC[C@H]1C(=O)N[C@@H](Cc1c[nH]cn1)C(=O)N1CCC[C@H]1C(=O)N[C@@H](CCCNC(=N)N)C(=O)N[C@@H](CC(C)C)C(N)=O [compound 20] (H-GNNRPVYIPR[Hyp]RPPHPRL-NH2)
MIC M. luteus ATCC 10240 ([1]; ATCC 10240, 20 h): 1.95 µg/mL (≈ 0.906 µM)
MIC Mycobacterium vaccae ([2]; 20 h): 125 µg/mL (≈ 58.1 µM)
MIC R. radiobatter ATCC 15955 [3, 15]: 0.33 µg/mL (≈ 0.153 µM)
MIC E. coli DC 2 [4]: 1.95 to 3.91 µg/mL
MIC E. coli BL 21 AI [5]: 0.49 µg/mL (≈ 0.228 µM)
MIC B. subtilis 347 ([6]; 347, 20 h): >125 µg/mL
MIC E. coli D31 [7]: 32 µg/mL (≈ 14.9 µM)
MIC K. Pneumonia 123132 [8, 15]: 4 µg/mL (≈ 1.86 µM)
MIC K. Pneumonia K6, ATCC 700603 [9]: 8 µg/mL (≈ 3.72 µM)
MIC E. coli 45849 [10, 15]: 1 µg/mL (≈ 0.465 µM)
MIC E. coli 1103 ([11]; 1103, 20 h): 3.9 µg/mL (≈ 1.81 µM)
MIC K. pneumonia 681 ([12]; 20 h): 3.9 µg/mL (≈ 1.81 µM)
MIC S. typhi S5 [13]: <0.5 µg/mL

CC[C@H](C)[C@H](NC(=O)[C@H](CCCNC(=N)N)NC(=O)[C@@H]1CCCN1C(=O)[C@H](Cc1c[nH]cn1)NC(=O)[C@@H]1CCCN1C(=O)[C@@H]1CCCN1C(=O)[C@H](CCCNC(=N)N)NC(=O)[C@@H]1CCCN1C(=O)[C@H](CCCNC(=N)N)NC(=O)[C@@H]1CCCN1C(=O)[C@@H](NC(=O)[C@H](Cc1ccc(O)cc1)NC(=O)[C@@H](NC(=O)[C@@H]1CCCN1C(=O)[C@H](CCCNC(=N)N)NC(=O)[C@H](CC(N)=O)NC(=O)[C@H](CC(N)=O)NC(=O)[C@H](CCCN)NC(C)=O)C(C)C)[C@@H](C)CC)C(N)=O [compound 65] (Ac-[Orn]NNRPVYIPRPRPPHPRI-NH2)
MIC M. luteus ATCC 10240 ([1]; ATCC 10240, 20 h): 0.98 µg/mL (≈ 0.439 µM)
MIC Mycobacterium vaccae ([2]; 20 h): 62.5 µg/mL (≈ 28 µM)
MIC E. coli DC 2 [4]: 7.81 µg/mL (≈ 3.49 µM)
MIC E. coli BL 21 AI [5]: 0.98 µg/mL (≈ 0.439 µM)
MIC B. subtilis 347 ([6]; 347, 20 h): 125 µg/mL (≈ 55.9 µM)
MIC E. coli 1103 ([11]; 1103, 20 h): 1.95 µg/mL (≈ 0.873 µM)
MIC K. pneumonia 681 ([12]; 20 h): 7.81 µg/mL (≈ 3.49 µM)
